The values below come from PubChem BioAssay (NCI).

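Results reflect a 48-hour exposure of cells in 96-well plates to compound at five concentrations. TGI marks complete inhibition of growth.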

Holding throughout (assay): DTP human tumour cell line panel, 48 h
The test system of assay [1] is 786-0 renal.
Assay [2] relates to ACHN renal.
For assay [3], the system named is CAKI-1 renal.
Assay [4] relates to HCT-116 colon.
The subject of assay [5] is HCT-15 colon.
For assay [6], the system named is IGROV1 ovarian.
Assay [7] relates to K-562 leukemia.
The test system of assay [8] is LOX IMVI melanoma.
Assay [9] has as its system M14 melanoma.
Assay [10] relates to OVCAR-4 ovarian.
Assay [11] deals with OVCAR-5 ovarian.
Assay [12] concerns SF-295 CNS.
In assay [13] the test system is SK-MEL-2 melanoma.
Assay [14] has as its system SK-MEL-28 melanoma.
The subject of assay [15] is SK-MEL-5 melanoma.
Assay [16] deals with SNB-19 CNS.
Assay [17] has as its system UO-31 renal.

Consider `CCOC(=O)C1=C(OC(OCC)C(CC)[Se]c2ccccc2)CCC1` (centres undefined), for which the TGI was 30.5 µM in [1]; more than 100 µM in [2]; more than 100 µM in [3]; more than 100 µM in assay [4]; 42.9 µM in [5]; more than 100 µM in assay [6]. For the same molecule, the TGI in assay [7] was more than 100 µM; in assay [8], 20.5 µM; in [9] it was 31.6 µM; in [10], 28 µM; in assay [11], 69.6 µM; in assay [12] it was 65.5 µM. The TGI in [13] was more than 100 µM; in [14], 92.8 µM; in assay [15] it was 31.2 µM; in [16] it was more than 100 µM; in assay [17], 96.2 µM.

In the case of `CN1CCc2ccccc2C(C(=O)c2ccc3c(c2)OCO3)C1=O` (centres undefined), the TGI in assay [1], in assay [2], in assay [3], in assay [4], in assay [5] and in assay [6] was more than 100 µM in each case. The TGI in assay [7], in assay [8], in assay [9], in assay [10], in [13] and in assay [14] was more than 100 µM throughout. In addition, the TGI in assay [15], in assay [16] and in assay [17] was more than 100 µM throughout.

In the case of `COc1ccc(/C=C\c2cc(OC)c(OC)c(OC)c2)cc1`, the TGI is more than 100 µM in assay [1]; more than 100 µM in assay [2]; 43.4 µM in assay [3]; more than 100 µM in assay [4]; more than 100 µM in assay [6]; more than 100 µM in assay [7]. In addition, the TGI in assay [9] is more than 100 µM; in assay [11], 90.8 µM; in assay [12] it was 0.000719 µM; in assay [13], more than 100 µM; in assay [15] it was 14.5 µM; in assay [17] it was 8.66 µM.

Take `COc1cc([C@@H]2c3cc4c(cc3[C@@H](NCc3cccc(C#N)c3)C3COC(=O)[C@@H]32)OCO4)cc(OC)c1O` (some centres undefined): the TGI was determined as 2.62 µM in [1]; 1.58 µM in assay [2]; 20.8 µM in assay [3]; 21.4 µM in [4]; 3.17 µM in assay [5]; 15.2 µM in [6]. The concentration for total growth inhibition (TGI) was 25.4 µM in assay [7]; 8.36 µM in [8]; 6.22 µM in [9]; more than 100 µM in [10]; 14.6 µM in assay [11]; 7 µM in [12]. Further, the TGI in assay [13] worked out at 8.78 µM; in assay [14], 46.1 µM; in assay [15], 13 µM; in [16], 7.74 µM; in assay [17] it was 5.52 µM.

On to `C=C1C2=C(CCCC2)C(=O)OC12CCCCC2`, for which the TGI in assay [1], in [2], in [4], in assay [5], in assay [6] and in [7] was more than 100 µM in each case. For the same molecule, the TGI in [8], in assay [9], in assay [10], in assay [11], in assay [12] and in assay [13] was more than 100 µM each time. The TGI in assay [14], in assay [15], in assay [16] and in assay [17] was more than 100 µM throughout.

Take `CCOC(=O)CCC(NC(=O)c1ccc(NC(OC)c2nc3cc(C(F)(F)F)ccc3nc2-c2ccccc2)cc1)C(=O)OCC` (centres undefined): the TGI was found to be 26.6 µM in assay [1]; 30.2 µM in assay [2]; 31.1 µM in assay [3]; 9.35 µM in [4]; 34 µM in [5]; 33.3 µM in [6]. Also, the TGI in assay [7] is more than 26.6 µM; in [8] it was 23.4 µM; in [9], 29 µM; in assay [10] it was 55.1 µM; in assay [11], 31.5 µM; in [12], 31.2 µM. Besides, the TGI in [13] was 33.1 µM; in assay [14] it was 31.6 µM; in assay [15], 30 µM; in assay [16] it was 27.5 µM; in assay [17] it was 26.8 µM.

Turning to `COc1ccc2[nH]c3c(c2c1)[C@H]1CCC(C(C)(C)C)C[C@H]1[C@H]1C(=O)N(c2ccccc2)C(=O)[C@@H]31` (some centres undefined), the total growth inhibition concentration (TGI) is 15.6 µM in assay [1]; 18.4 µM in assay [2]; more than 36.6 µM in assay [3]; more than 100 µM in assay [4]; more than 100 µM in [5]; more than 100 µM in assay [6]. The TGI in [7] was more than 91.5 µM; in assay [8], more than 100 µM; in assay [9], 30.6 µM; in assay [10], 14.4 µM; in assay [11], more than 100 µM; in assay [12] it was more than 42.5 µM. Moreover, the TGI is 58 µM in assay [13]; more than 100 µM in [14]; more than 100 µM in assay [15]; more than 51.7 µM in [16]; 97.5 µM in [17].

`O=[N+]([O-])c1cccc(Nc2nc(Cl)nc(Cl)n2)c1`: the TGI in assay [1], in assay [2], in assay [3], in assay [4], in [5] and in [7] was more than 100 µM each time. Besides, the TGI in assay [8], in assay [9], in assay [10], in assay [11], in [12] and in assay [13] was more than 100 µM throughout. For the same molecule, the TGI in [14], in [15], in assay [16] and in assay [17] was more than 100 µM each time.

As for `CCCCOC/N=C(/N)NC#N`, the TGI is more than 100 µM in assay [1]; more than 100 µM in assay [2]; more than 100 µM in assay [3]; more than 100 µM in assay [4]; 43.8 µM in assay [5]; more than 100 µM in assay [6]. For the same molecule, the TGI in assay [7] is more than 100 µM; in [8], 90.1 µM; in assay [9], more than 100 µM; in assay [10], more than 100 µM; in [11], more than 100 µM; in assay [12], more than 100 µM. Further, the TGI in [13], in [14], in assay [15], in assay [16] and in assay [17] was more than 100 µM throughout.

As for `Cc1ccc(-c2cc(-c3ccccc3)c(C#N)c(=O)[nH]2)cc1`, the TGI in [1], in assay [2], in assay [4], in [5], in assay [6] and in [7] was more than 100 µM in each case. The TGI in [8], in assay [9], in [10], in [11], in [12] and in [14] was more than 100 µM each time. Besides, the TGI in assay [15], in assay [16] and in [17] was more than 100 µM in each case.

Turning to `COc1ccc(C2Cc3cc(OC)c(OC)c(OC)c3C2)cc1` (centres undefined), the TGI in assay [1], in [2], in assay [3], in [4], in assay [5] and in assay [6] was more than 100 µM in each case. Moreover, the TGI in assay [7], in [8], in [9], in assay [10], in assay [11] and in assay [12] was more than 100 µM in each case. Besides, the TGI is more than 100 µM in assay [13]; more than 100 µM in assay [14]; 31.3 µM in [15]; more than 100 µM in assay [16]; 64.8 µM in [17].

In the case of `CCCc1cc(OC(=O)c2c(O)cc(OC)cc2CCC)cc(O)c1C(=O)O`, the TGI in [1] is more than 100 µM; in assay [2], 80.2 µM; in [4] it was 32.2 µM; in [6] it was more than 100 µM; in assay [7], more than 100 µM; in assay [8], 61.7 µM. The TGI in assay [9] is 73.7 µM; in assay [11], more than 100 µM; in [13] it was 47.4 µM; in [14] it was 70.6 µM; in [16] it was more than 100 µM; in [17], 35.9 µM.

`CCCCCCCCC(O)c1ccc(/C=C\C(O)CCCC(=O)O)s1` (centres undefined): the TGI in assay [1], in assay [2], in [4], in assay [5], in assay [6] and in assay [7] was more than 100 µM in each case. Besides, the TGI in [8], in assay [9], in [10], in [11], in [12] and in assay [13] was more than 100 µM in each case. Moreover, the TGI in [14], in assay [15], in [16] and in assay [17] was more than 100 µM each time.

Broadly, the TGI is the concentration at which net growth stops. High values mean lower sensitivity of the cells, low ones greater sensitivity of the cells.
